Reference: US4235905A, “1H-Pyrimido[4,5-c]-1,2-diazepines” (Burroughs Wellcome Co., priority 1977, dated 1980)
Where two headings read alike, the source gives them in different places.

What was measured:
[1] = test system: Eimeria tenella (Weybridge); assay: Anti-coccidial activity in vitro, chick embryo liver cell cultures with Eimeria tenella sporozites; type: cell-based; conditions: for Activity, Alone: compound alone; for Activity, With DV/SQX: with sulphaquinoxaline (0.01 μg/ml) and diaveridine (0.031 μg/ml); for minimal effective concentration: Eimeria tenella, read-out: minimum active anti-coccidial amount
Description: The anti-coccidial activity of compounds of formula (III) alone and in combination with a mixture of diaveridine (DV) and sulphaquinoxaline (SQX) in vitro was tested according to the following procedure.
Using standard test procedures employing primary explant cultures of chick embryo liver cells and a suspension of Eimeria tenella (Weybridge) sporozites the activity of the compounds was determined at various concentrations. In the above test, each test compound was used either alone or in combination with sulphaquinoxaline (0.01 μg/ml) and diaveridine (0.031 μg/ml). It should be noted that the minimum active anti-coccidial amounts of sulphaquinoxaline and diaveridine are 0.024 μg/ml and 0.098 μg/ml respectively.
The following results were obtained wherein activity is expressed as follows: […]

[2] = LD50 in mice; conditions: mouse, in vivo, ip
Description: By standard techniques the LD50 values of the following compounds of formula (I) were determined in mice.

[3] = test system: Staphylococcus aureus; assay: Antibacterial activity of trimethoprim and sulphamethoxazole alone and in combination with compounds of formula (II) (activity index); type: cell-based; conditions: compound of formula (II) at 50 μg/ml, viable counts after 24 hours incubation of 10^6 organisms per ml; for activity index, SMX: in combination with sulphamethoxazole (SMX); for activity index, TMP: in combination with trimethoprim (TMP)
Description: The antibacterial activity against Staphylococcus aureus of trimethoprim (TMP) and sulphamethoxazole (SMX) alone and in combination with compounds of formula (II) were compared.
The results shown in the table are expressed as an activity index which is: [formula] the effect of the compounds being measured by viable counts after 24 hours incubation of 10^6 organisms per ml.
In this test, the compounds of formula (II) were present at 50 μg/ml.
An activity index ≥2 is indicative of substantial potentiation: […]

[4] = test system: Weybridge strain of Eimeria tenella; assay: Anti-coccidial activity in vivo in chicks, caecal lesion score; conditions: compound 200 ppm in diet with DV 20 ppm and SQX 20 ppm, sixth day after infection, scale 0-3, dead = 4
Description: Compounds of formula (III) were tested for anti-coccidial activity in vivo in combination with diaveridine (DV) and sulphaquinoxaline (SQX), each at 20 ppm, according to the following procedure. Groups of five, one week old chicks were each injected orally with 6,000 sporulated o cysts of the Weybridge strain of Eimeria tenella. Drugs were administered in LD 5 chick mash deficient in Vitamin K, beginning on the day of infection and continuing for 7 days. On the sixth day after infection, caecal lesions of surviving chicks were scored on a scale of 0, 1, 2 or 3 and any dead chicks were scored as 4.

CN1N=C(c2ccccc2)C=C(c2ccccc2)c2c1nc(N)[nH]c2=O [Example 1, 8-Amino-3,5-diphenyl-1-methyl-1H-pyrimido{4,5-c}-1,2-diazepin-6(7H)-one]
Activity, Alone ([1]; concentration 25 μg/ml): 4 (1-25% parasite development) | Activity, With DV/SQX ([1]; concentration 25 μg/ml): 4 (1-25% parasite development)

CC1=CC(C)=NN(C)c2nc(N)[nH]c(=O)c21 [Example 2, 8-Amino-1,3,5-trimethyl-1H-pyrimido{4,5-c}-1,2-diazepin-6(7H)-one]
LD50 [2]: ~500 mg/kg

COC(=O)C1=NN(C)c2nc(N)[nH]c(=O)c2C(c2cccc(O)c2)=C1 [Example 3, 8-Amino-3-carbomethoxy-5-(3-hydroxyphenyl)-1-methyl-1H-pyrimido{4,5-c}-1,2-diazepin-6(7H)-one]
activity index, SMX [3]: 2.7 | activity index, TMP [3]: 0.9

CCOC(=O)C1=NN(C)c2nc(N)[nH]c(=O)c2C(c2ccccc2)=C1 [Example 5, 8-Amino-3-carbethoxy-1-methyl-5-phenyl-1H-pyrimido-{4,5-c}-1,2-diazepin-6(7H)-one]
activity index, SMX [3]: > 2.8 | activity index, TMP [3]: 2.0

COC(=O)C1=NN(C)c2nc(N)[nH]c(=O)c2C(c2cc(OC)c(OC)c(OC)c2)=C1 [Example 6, 8-Amino-3-carbomethoxy-1-methyl-5-(3,4,5-trimethoxyphenyl)-1H-pyrimido{4,5-c}-1,2-diazepin-6(7H)-one]
Lesion score [4]: 0.6 | Activity, Alone ([1]; concentration 1.56 μg/ml): 2 (51-75% parasite development) | Activity, Alone ([1]; concentration 6.25 μg/ml): 3 (26-50% parasite development) | Activity, Alone ([1]; concentration 25 μg/ml): 3 (26-50% parasite development) | Activity, Alone ([1]; concentration 100 μg/ml): 3 (26-50% parasite development) | Activity, With DV/SQX ([1]; concentration 1.56 μg/ml): 3 (26-50% parasite development) | Activity, With DV/SQX ([1]; concentration 6.25 μg/ml): 3 (26-50% parasite development) | Activity, With DV/SQX ([1]; concentration 25 μg/ml): 4 (1-25% parasite development) | Activity, With DV/SQX ([1]; concentration 100 μg/ml): 5

CCOC(=O)C1=NN(C)c2nc(N)[nH]c(=O)c2C(c2ccc(OC)cc2OC)=C1 [Example 7, 8-Amino-3-carbethoxy-1-methyl-5-(2,4-dimethoxyphenyl)1H-pyrimido{4,5-c}-1,2-diazepin-6(7H)-one]
Lesion score [4]: 1.2 | Activity, Alone ([1]; concentration 1.56 μg/ml): 0 (95-100% parasite development) | Activity, Alone ([1]; concentration 6.25 μg/ml): 2 (51-75% parasite development) | Activity, Alone ([1]; concentration 25 μg/ml): 4 (1-25% parasite development) | Activity, Alone ([1]; concentration 100 μg/ml): 4 (1-25% parasite development) | Activity, With DV/SQX ([1]; concentration 1.56 μg/ml): 2 (51-75% parasite development) | Activity, With DV/SQX ([1]; concentration 6.25 μg/ml): 3 (26-50% parasite development) | Activity, With DV/SQX ([1]; concentration 25 μg/ml): 5 | Activity, With DV/SQX ([1]; concentration 100 μg/ml): 5

COc1ccc(Cc2cnc(N)nc2N)cc1OC [diaveridine, reference compound]
minimal effective concentration [1]: 0.098 µg/mL

COC(=O)C1=NN(C)c2nc(N)[nH]c(=O)c2C(c2cc(OC)c(OC)c(OC)c2)=C1 [drawing 31]
LD50 [2]: > 500 mg/kg

Nc1ccc(S(=O)(=O)Nc2cnc3ccccc3n2)cc1 [sulphaquinoxaline, reference compound]
minimal effective concentration ([1]; in vitro, alone): 0.024 µg/mL
